{"source": "patent US20230158004A1", "about": "“ENTERIC-COATED PREPARATION COMPRISING PIRFENIDONE HAVING IMPROVED SAFETY AND STABILITY, AND METHOD FOR PREPARING SAME” (YUNGJIN PHARM. CO., LTD., priority 2020, published 2023)", "origin": "cited, not measured here", "conditions": "healthy adults and patients with idiopathic pulmonary fibrosis, total 1,650 people", "data": [{"smiles": "Cc1ccc(=O)n(-c2ccccc2)c1", "note": "[pirfenidone, 5-methyl-1-phenyl-2-(1H)-pyridone]", "values": [{"measurement": "anorexia", "result": 11.4, "unit": "%"}, {"measurement": "diarrhea", "result": 18.8, "unit": "%"}, {"measurement": "headache", "result": 10.1, "unit": "%"}, {"measurement": "indigestion", "result": 16.1, "unit": "%"}, {"measurement": "nausea", "result": 32.4, "unit": "%"}, {"measurement": "photosensitivity", "result": 9.3, "unit": "%"}, {"measurement": "rash", "result": 26.2, "unit": "%"}]}]}
